Our source for the IC50 values is US20120220577A1, “GLYCINE B ANTAGONISTS” (Merz Pharma GmbH & Co KgaA, priority 2009, published 2012).

Molecules are shown by their SMILES.

In this assay the target is NMDA receptor glycine B site (Rattus norvegicus, UniProt P35439). As to the kind of experiment: Whole cell patch-clamp recordings, rat hippocampal neurons (NMDA/D-Serine currents). In kind it is cell-based. To be noted: NMDA 200 μM + D-Serine 1 μM, -70 mV, read-out: NMDA-PC-r-HIC-NAM - IC50. The method, then: Antagonistic potencies of the test compounds are functionally evaluated using electrophysiological whole cell patch-clamp recordings and/or fluorometric intracellular Ca^2+-imaging (FLIPR) screens.
Cell preparation is performed as described by Parsons, et al. (Neuropharmacology, 1998, 37(6), 719-727). The female Sprague-Dawley rat is anaesthetised by placing in a saturated CO2-euthanasia chamber under further quiet CO2-influx. Under these conditions the rat loses consciousness after a few seconds and is then sacrificed by cervical dislocation. After opening the abdominal cavity, embryos (E20) are removed and stored in ice cold Ca^2+- and Mg^2+-free Hank's Buffered Salt Solution (pH 7.3), containing 4 g/l glucose (HBSS-CMF). Hippocampi are then isolated from the brains of at least 8 embryos after decapitation, transferred into ice cold HBSS-CMF and washed 3 to 4 times.
Hippocampi are pre-incubated for 8 min with a 0.66% trypsin (Sigma-Aldrich) and 0.1% (20 U/ml) DNAase solution (Sigma-Aldrich) in Ca^2+-free Phosphate Buffered Saline (PBS-CF) and washed 3 times with HBSS-CMF. Cells are then mechanically dissociated by trituration in a PBS-CF solution containing 0.05% (10 U/ml) DNAase and 0.3% of the trypsin inhibitor ovomucoid (all from Sigma-Aldrich). The cells are then centrifuged at 180×g for 10 minutes, and the cell pellet re-suspended in basal Minimum essential medium (MEM, Invitrogen, Karlsruhe, Germany), again carefully triturated to ensure maximal dissociation and finally plated in the flexiPERM inserts (Thermo Fisher Scientific, Langenselbold, Germany) at a density of 15×10^3 cells/cm^2 (0.5 ml/insert) onto poly-DL-ornithine (Sigma) and mouse laminin (Invitrogen) pre-coated plastic petri dishes. After 1 hour the cells become attached to the bottom of the dish and the inserts may be removed. The cells are then nourished with 2 ml MEM supplemented with 5% foetal calf serum (FCS) and 5% horse serum and incubated at 37° C. with 95% air and 5% CO2 at 95% humidity. After 4 days in vitro (DIV) further glial mitosis is inhibited by adding 10 μl of AraC (5 μM endconcentration). The medium is completely exchanged after an additional 2 DIV and again, but only partly (50%), after 8 DIV. The cells are used for electrophysiological recordings after 11-15 DIV.
Cells are visualised using an inverted microscope and selected for patching based upon their position and morphology. Voltage clamp recordings are made in the whole cell configuration of the patch clamp technique at a holding potential of −70 mV with the aid of an EPC-10 amplifier in combination with pipette manipulator. Patch clamp pipettes are pulled from borosilicate glass using a horizontal puller (P-97 Puller, Sutter Instruments, USA) and, when filled with intracellular solution, have resistances of 1-4 MΩ.
Solutions are delivered via a home-made gravity driven very fast perfusion system (<10 ms) including valves to switch flow on and off in combination with a stepper motor-driven double-barrelled theta glass application pipette in order to expose cells to either agonist-free or agonist-containing solutions in presence or absence of antagonist.
The intracellular solution used consists of: 120 mM CsCl, 10 mM EGTA, 1 mM MgCl2, 200 μM CaCl2, 10 mM glucose and 22 mM tetraethyl ammonium chloride (TEA-CL). The corresponding extracellular bath solution contains: 140 mM NaCl, 3 mM KCl, 10 mM glucose, 10 mM HEPES, 1.5 mM CaCl2 and 4.5 mM sucrose (all from Sigma-Aldrich) pH 7.3, and is supplemented with 0.3 μM tetrodotoxin (TTX, Tocris, Bristol, U.K.) to block voltage-activated sodium channels and 0.25 μM bicuculline (Sigma-Aldrich) to block GABAA receptors. […]

With `O=C(COc1cc(C(=O)O)cc2cc(Cl)cc(Cl)c12)Nc1ccccc1OCc1nnn[nH]1` [Example 60, 5,7-Dichloro-4-{[2-(1H-tetrazol-5-ylmethoxy)-phenylcarbamoyl]-methoxy}-naphthalene-2-carboxylic acid], the IC50 is 65 nM.

As for `O=C(O)Cc1ccc(NC(=O)COc2cc(C(=O)O)cc3cc(Cl)cc(Cl)c23)cc1` [Example 7, 4-[(4-Carboxymethylphenylcarbamoyl)-methoxy]-5,7-dichloronaphthalene-2-carboxylic acid], the concentration for half-maximal inhibition (IC50) was 510 nM.

`CN(C(=O)COc1cc(C(=O)O)cc2cc(Cl)cc(Cl)c12)c1ccc(C(=O)O)cc1` [Example 14, 4-{[(4-Carboxy-phenyl)-methylcarbamoyl]-methoxy}-5,7-dichloronaphthalene-2-carboxylic acid]: the IC50 turned out to be 727 nM.

Turning to `O=C(O)Cc1cccc(NC(=O)COc2cc(C(=O)O)cc3cc(Cl)cc(Cl)c23)c1` [Example 13, 4-[(3-Carboxymethylphenylcarbamoyl)-methoxy]-5,7-dichloronaphthalene-2-carboxylic acid], the IC50 stood at 178 nM.

Take `NCc1ccc(NC(=O)COc2cc(C(=O)O)cc3cc(Cl)cc(Cl)c23)c(OCC(=O)O)c1` [Example 34, 4-[(4-Aminomethyl-2-carboxymethoxyphenylcarbamoyl)-methoxy]-5,7-dichloronaphthalene-2-carboxylic acid]: the IC50 is 23 nM.

As for `O=C(O)Cc1ccccc1NC(=O)COc1cc(C(=O)O)cc2cc(Cl)cc(Cl)c12` [Example 15, 4-[(2-Carboxymethylphenylcarbamoyl)-methoxy]-5,7-dichloronaphthalene-2-carboxylic acid], the IC50 was 356 nM.

Consider `O=C(COc1cc(C(=O)O)cc2cc(Cl)cc(Cl)c12)Nc1ccccc1C(=O)O` [Example 3, 4-[(2-Carboxy-phenylcarbamoyl)-methoxy]-5,7-dichloro-naphthalene-2-carboxylic acid], for which the IC50 was 493 nM.

As to `COCC(Oc1cc(C(=O)O)cc2cc(Cl)cc(Cl)c12)C(=O)Nc1ccccc1OC` (centres unmarked) [Example 74, 5,7-Dichloro-4-[2-methoxy-1-(2-methoxy-phenylcarbamoyl)-ethoxy]-naphthalene-2-carboxylic acid], the IC50 turned out to be 288 nM.

Consider `O=C(O)COc1ccccc1CNC(=O)COc1cc(C(=O)O)cc2cc(Cl)cc(Cl)c12` [Example 59, 4-[(2-Carboxymethoxy-benzylcarbamoyl)-methoxy]-5,7-dichloro-naphthalene-2-carboxylic acid], for which the IC50 was determined as 59 nM.

For `O=C(COc1cc(C(=O)O)cc2cc(Cl)cc(Cl)c12)NCc1ccccc1` [Example 18, 4-(Benzylcarbamoylmethoxy)-5,7-dichloro-naphthalene-2-carboxylic acid], the IC50 was determined as 465 nM.

Turning to `O=C(O)COc1ccccc1NC(=O)COc1cc(C(=O)O)cc2cc(Cl)cc(Cl)c12` [Example 42, 4-[(2-Carboxymethoxyphenylcarbamoyl)-methoxy]-5,7-dichloronaphthalene-2-carboxylic acid], the IC50 amounted to 50 nM.

As for `CN(C(=O)COc1cc(C(=O)O)cc2cc(Cl)cc(Cl)c12)c1ccccc1C(=O)O` [Example 20, 4-{[(2-Carboxyphenyl)-methylcarbamoyl]-methoxy}-5,7-dichloronaphthalene-2-carboxylic acid], the IC50 worked out at 198 nM.

With `O=C(COc1cc(C(=O)O)cc2cc(Cl)cc(Cl)c12)Nc1ccccc1OCC(=O)N1CCOCC1` [Example 54, 5,7-Dichloro-4-{[2-(2-morpholin-4-yl-2-oxo-ethoxy)-phenylcarbamoyl]-methoxy}-naphthalene-2-carboxylic acid], the IC50 came to 169 nM.

In the case of `O=C(COc1cc(C(=O)O)cc2cc(Cl)cc(Cl)c12)Nc1ccccc1CO` [Example 5, 5,7-Dichloro-4-[(2-hydroxymethylphenylcarbamoyl)-methoxy]-naphthalene-2-carboxylic acid], the IC50 came to 258 nM.

For `O=C(O)c1cc(OCC(=O)N2CCCc3ccccc32)c2c(Cl)cc(Cl)cc2c1` [Example 50, 5,7-Dichloro-4-[2-(3,4-dihydro-2H-quinolin-1-yl)-2-oxo-ethoxy]-naphthalene-2-carboxylic acid], the concentration for half-maximal inhibition (IC50) was 542 nM.

In the case of `O=C(O)COc1cc(C(=O)O)cc2cc(Cl)cc(Cl)c12` [Example 1, 4-Carboxymethoxy-5,7-dichloronaphthalene-2-carboxylic acid], the IC50 was determined as 850 nM.

For `O=C(O)c1cc(OCC(=O)N2CCOc3c(CO)cccc32)c2c(Cl)cc(Cl)cc2c1` [Example 78, 5,7-Dichloro-4-[2-(8-hydroxymethyl-2,3-dihydro-benzo[1,4]oxazin-4-yl)-2-oxo-ethoxy]-naphthalene-2-carboxylic acid], the IC50 was determined as 253 nM.
